Values of other authors, collected in patent publication US20190053509A1, “NITROUS OXIDE MIXTURES AND METHODS OF USE” (Korvata Inc., priority 2015, published 2019).
Read-outs that look alike come from different tables or passages of the source.

How the values were obtained:
[1] = relative to nitrogen standardized to 1.0; from J Applied Physiology 1994; 76(1): 439-444
[2] = 101.3 kPa (1 atm); for Bunsen solubility coefficient in olive oil: olive oil at 22° C.; for Bunsen solubility coefficient in water: water at 0° C.

Structure (SMILES) | RNP (Relative Narcotic Potency) [1] | Bunsen solubility coefficient in olive oil [2] | Bunsen solubility coefficient in water [2] | lipid solubility (25° C. and 36 psi) | lipid solubility (25° C. and 181 psi)
[Ar] [Ar, argon] | 2.3 | 0.15 L gas/L | 0.0421 L gas/L |  | 
[N-]=[N+]=O [Example N2O, nitrous oxide] | 39 | 3.6 L gas/L | 1.0710 L gas/L | 7.08 mg/mL | 23.14 mg/mL
O=O [Example O2, oxygen] |  | 0.11 L gas/L | 0.0387 L gas/L |  | 
[He] [He, helium] | 0.045 | 0.015 L gas/L | 0.0078 L gas/L |  | 
[Kr] [Kr, krypton] | 7.1 | 0.44 L gas/L | 0.0856 L gas/L |  | 
[Ne] [Ne, neon] | 0.3 | 0.052 L gas/L | 0.0101 L gas/L |  | 
[Xe] [Xe, xenon] |  | 1.9 L gas/L | 0.1920 L gas/L |  | 
